Eleven compounds from ChEMBL document CHEMBL1201862, “PubChem BioAssay data set” (2004) can be followed below.

Test systems include U-251; SW-620; NCI-H460; NCI-H23; IGROV-1; OVCAR-5; A549; MOLT-4; HOP-92; OVCAR-4; NCI-H226; HCT-15; SR; UACC-257; MCF7.
Experiment in all cases: NCI tumour cell line growth inhibition, 48 h

SMILES strings stand for the structures.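 Each compound was tested at five concentrations against cells in 96-well plates for 48 hours. GI50: concentration for 50% inhibition of growth.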 Activity calls are given as the source filed them. Cut-off read from the data, not from the text of the source: active = GI50 up to about 1.1 µM and inactive = higher.

`CC1=NOC(=O)/C1=C/c1cccc2ccccc12`: the GI50 in the assay on U-251 is > 100 µM (inactive); in the assay on SW-620, 54 µM (inactive); with NCI-H460, > 100 µM (inactive); in the assay with NCI-H23, > 100 µM (inactive); in the assay on IGROV-1 it was > 100 µM (inactive); in the assay on OVCAR-5, > 100 µM (inactive). Also, the GI50 in the assay on A549 is > 100 µM (inactive); in the assay on MOLT-4, > 100 µM (inactive); in the assay with HOP-92, > 100 µM (inactive); with OVCAR-4, > 100 µM (inactive); in the assay with NCI-H226 it was > 100 µM (inactive); with HCT-15 it was greater than 100 µM. The GI50 with SR and in the assay on UACC-257 was > 100 µM (inactive) throughout.
For `O=C(CCN1CCCCC1)C(=Cc1ccccc1)C(=O)CCN1CCCCC1`, the GI50 in the assay on U-251 was > 100 µM (inactive); in the assay with SW-620 it was 29.7 µM (inactive); in the assay with NCI-H460, > 100 µM (inactive); in the assay with NCI-H23, > 59.8 µM (inactive); in the assay on IGROV-1 it was > 100 µM (inactive); in the assay with MCF7, 35.8 µM (inactive). The GI50 in the assay on OVCAR-5 was > 100 µM (inactive); with A549, > 100 µM (inactive); in the assay on MOLT-4, 18.6 µM (inactive); with HOP-92 it was 42.8 µM (inactive); with OVCAR-4 it was > 100 µM (inactive); with NCI-H226, > 100 µM (inactive). Besides, the figures for the GI50 in the assay on HCT-15, in the assay with SR and in the assay with UACC-257 were 64.9 µM, 4.36 µM (inactive) and 6.75 µM (inactive), respectively.
As to `O=C1OCC/C1=N/O`, the GI50 in the assay with U-251, in the assay with SW-620, in the assay with NCI-H460, with NCI-H23, in the assay with IGROV-1 and in the assay on OVCAR-5 was > 100 µM (inactive) in each case. In addition, the GI50 was > 100 µM (inactive) with A549; > 100 µM (inactive) with MOLT-4; > 100 µM (inactive) in the assay with HOP-92; > 100 µM (inactive) with OVCAR-4; > 100 µM (inactive) in the assay with NCI-H226; greater than 100 µM in the assay with HCT-15. For the same compound, the GI50 in the assay on SR and in the assay on UACC-257 was > 100 µM (inactive) throughout.
Consider `COc1ccc(/C=C(\NC(=O)c2ccccc2)c2nc3ccccc3[nH]2)cc1OC`, for which the GI50 with U-251, in the assay on SW-620, in the assay with NCI-H460, in the assay with NCI-H23, in the assay with IGROV-1 and in the assay on OVCAR-5 was > 100 µM (inactive) each time. Further, the GI50 is > 100 µM (inactive) in the assay on A549; 79.1 µM (inactive) in the assay with MOLT-4; > 100 µM (inactive) in the assay on HOP-92; > 100 µM (inactive) with OVCAR-4; > 100 µM (inactive) in the assay on NCI-H226; greater than 100 µM in the assay with HCT-15. The GI50 in the assay with SR and with UACC-257 was > 100 µM (inactive) each time.
Consider `O=C1OC2C(O)COC2(O)C1(O)Cc1c[nH]c2ccccc12` (stereo not given), for which the GI50 with U-251, in the assay with SW-620, in the assay with NCI-H460, with NCI-H23, in the assay on IGROV-1 and in the assay on OVCAR-5 was > 100 µM (inactive) throughout. The GI50 with A549 was > 100 µM (inactive); in the assay with MOLT-4, > 100 µM (inactive); with HOP-92, > 100 µM (inactive); in the assay with OVCAR-4, > 100 µM (inactive); in the assay on NCI-H226 it was > 100 µM (inactive); with HCT-15, greater than 100 µM. In addition, the GI50 in the assay on SR and in the assay with UACC-257 was > 100 µM (inactive) in each case.
For `CC1(C)O[C@@H](CCl)C[C@H](C#N)O1`, the GI50 in the assay with U-251, in the assay with SW-620, with NCI-H460, in the assay with NCI-H23, in the assay with IGROV-1 and in the assay on OVCAR-5 was > 100 µM (inactive) each time. For the same compound, the GI50 with A549 is > 100 µM (inactive); with MOLT-4, > 100 µM (inactive); in the assay on HOP-92, > 100 µM (inactive); in the assay on OVCAR-4, > 100 µM (inactive); in the assay on NCI-H226 it was 97.1 µM (inactive); with HCT-15, greater than 100 µM. In addition, the GI50 with SR and in the assay on UACC-257 was > 100 µM (inactive) throughout.
Turning to `Cn1ncc2c(Nc3ccc(Cl)cc3)c3ccccc3nc21`, the GI50 in the assay with U-251 was 15.6 µM (inactive); in the assay with SW-620 it was 16.6 µM (inactive); with NCI-H460 it was 18.7 µM (inactive); with NCI-H23, > 10 µM (inactive); with IGROV-1, 21.2 µM (inactive); in the assay on OVCAR-5 it was 23.2 µM (inactive). Besides, the GI50 is 15.3 µM (inactive) in the assay on A549; 11.4 µM (inactive) with MOLT-4; 17.6 µM (inactive) in the assay with HOP-92; 12.4 µM (inactive) with OVCAR-4; 17.3 µM (inactive) in the assay with NCI-H226; 15.7 µM with HCT-15. For the same compound, the figures for the GI50 in the assay with SR and in the assay on UACC-257 were 14.9 µM (inactive) and 17.3 µM (inactive), respectively.
In the case of `COc1ccc(Nc2nc3ccc(C(F)(F)F)cc3nc2-c2ccccc2)cc1OC`, the GI50 is 34.1 µM (inactive) with U-251; 68.4 µM (inactive) in the assay with SW-620; 16.4 µM (inactive) in the assay on NCI-H460; 32.4 µM (inactive) in the assay on NCI-H23; 60.7 µM (inactive) with IGROV-1; 52.7 µM (inactive) in the assay with OVCAR-5. Also, the GI50 with A549 is 39.5 µM (inactive); with MOLT-4, 22 µM (inactive); in the assay on HOP-92, 1.08 µM (active); in the assay with OVCAR-4, > 100 µM (inactive); in the assay with NCI-H226, 28.6 µM (inactive); in the assay with HCT-15, 15.9 µM. The GI50 in the assay on SR was 21.4 µM (inactive); with UACC-257 it was 38.5 µM (inactive).
Take `COC(=O)/C(C#N)=C1\NC(=O)c2ccccc21`: the GI50 in the assay with U-251, in the assay on SW-620, with NCI-H460, in the assay on NCI-H23, with IGROV-1 and with OVCAR-5 was > 100 µM (inactive) each time. In addition, the GI50 in the assay on A549 is > 100 µM (inactive); with MOLT-4 it was > 100 µM (inactive); with HOP-92, > 100 µM (inactive); in the assay on OVCAR-4, > 100 µM (inactive); with NCI-H226 it was > 100 µM (inactive); with HCT-15, greater than 100 µM. In addition, the GI50 in the assay with SR and with UACC-257 was > 100 µM (inactive) each time.
Take `Clc1cccc(Cl)c1C1SCc2nc3ccccc3n21` (stereo not given): the GI50 in the assay with U-251 was > 100 µM (inactive); in the assay on SW-620, 46.7 µM (inactive); with NCI-H460, 48.6 µM (inactive); with NCI-H23, > 100 µM (inactive); in the assay with IGROV-1, 37.2 µM (inactive); with OVCAR-5, > 100 µM (inactive). Also, the GI50 with A549 is > 100 µM (inactive); in the assay on MOLT-4, 19.1 µM (inactive); in the assay on HOP-92, 9.48 µM (inactive); in the assay with OVCAR-4 it was 83.9 µM (inactive); in the assay on NCI-H226, > 100 µM (inactive); in the assay on HCT-15 it was 24.9 µM. Further, the GI50 is 5.38 µM (inactive) with SR and 21.1 µM (inactive) in the assay with UACC-257.
In the case of `Cn1cnc([N+](=O)[O-])c1Sc1nc2ccccc2[nH]1`, the GI50 is 20 µM (inactive) in the assay with U-251; > 10 µM (inactive) in the assay with SW-620; 22.4 µM (inactive) in the assay with NCI-H460; 19.1 µM (inactive) in the assay with NCI-H23; 13.9 µM (inactive) in the assay on IGROV-1; 52.8 µM (inactive) in the assay with OVCAR-5. Also, the GI50 in the assay on A549 was 19.4 µM (inactive); in the assay on MOLT-4, 6.87 µM (inactive); in the assay on HOP-92, 18.5 µM (inactive); with OVCAR-4, 33 µM (inactive); in the assay on NCI-H226, 28.7 µM (inactive); with HCT-15 it was 11.1 µM. In addition, the GI50 in the assay with SR is 10 µM (inactive); with UACC-257 it was 15.1 µM (inactive).
